Measured values as given in patent US6579881B2 (Eisai Co., Ltd., priority 1997, dated 2003).

Assays:
serotonin 2 receptor = serotonin 2 receptor (Rattus norvegicus, UniProt P14842); test: Binding test on [3H] ketanserin (serotonin 2 receptor); details: [3H] ketanserin 0.3 nM, receptor fraction of rat cerebral cortex; read-out: 5HT2
serotonin 1A receptor = target: T1, serotonin 1A receptor (Rattus norvegicus, UniProt P19327); test: Binding test on [3H] 8-hydroxy-dipropylaminotetralin (serotonin 1A receptor); details: [3H] 8-OH-DPAT 0.5 nM, receptor fraction of rat hippocampus; read-out: 5HT1a
T1 construct: To the receptor fraction of the hippocampus were added a test compound and 0.5 nM of [^3H]; 8-hydroxy-dipropylaminotetralin; from tissue; host or cells: SD rat hippocampus, membrane (receptor) fraction
T1 sequence (P19327 1-422): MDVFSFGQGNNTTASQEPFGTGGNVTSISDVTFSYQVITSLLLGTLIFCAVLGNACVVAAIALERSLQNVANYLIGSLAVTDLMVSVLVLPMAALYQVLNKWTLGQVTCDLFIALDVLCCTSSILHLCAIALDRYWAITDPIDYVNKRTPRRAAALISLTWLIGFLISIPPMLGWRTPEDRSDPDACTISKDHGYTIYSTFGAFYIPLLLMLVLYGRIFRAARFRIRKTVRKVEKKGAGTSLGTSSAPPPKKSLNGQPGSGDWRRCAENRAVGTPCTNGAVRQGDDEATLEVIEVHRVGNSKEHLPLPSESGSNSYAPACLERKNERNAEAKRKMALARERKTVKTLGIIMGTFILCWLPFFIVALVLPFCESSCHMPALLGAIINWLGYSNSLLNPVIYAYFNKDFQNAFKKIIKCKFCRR

α1 adrenalin receptor = test: Binding test on [3H] prazosin (α1 adrenalin receptor); parameters: species or system rat; details: [3H] prazosin about 0.2 nM, receptor fraction of rat cerebral cortex

Sequence of serotonin 2 receptor (P14842 whole entry): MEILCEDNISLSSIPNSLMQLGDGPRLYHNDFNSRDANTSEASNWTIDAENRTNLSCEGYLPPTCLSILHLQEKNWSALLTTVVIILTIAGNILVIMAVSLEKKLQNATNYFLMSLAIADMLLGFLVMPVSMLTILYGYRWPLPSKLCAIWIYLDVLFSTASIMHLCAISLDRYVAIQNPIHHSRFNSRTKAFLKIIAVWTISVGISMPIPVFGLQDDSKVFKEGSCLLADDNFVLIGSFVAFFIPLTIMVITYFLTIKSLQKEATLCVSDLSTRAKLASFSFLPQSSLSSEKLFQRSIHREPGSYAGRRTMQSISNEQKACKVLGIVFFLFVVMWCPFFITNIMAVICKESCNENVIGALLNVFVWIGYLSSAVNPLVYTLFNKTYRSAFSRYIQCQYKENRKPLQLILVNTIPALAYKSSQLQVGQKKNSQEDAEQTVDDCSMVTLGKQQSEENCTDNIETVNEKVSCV

Row | melting point | Ki (serotonin 2 receptor) | Ki (serotonin 1A receptor) | Ki (α1 adrenalin receptor) | SMILES
1 | 146 to 148 °C | 3.12 nM | 3.74 nM |  | CC(C)NC(=O)Cc1ccc2ccn(C3CCN(CCc4ccc(F)cc4)CC3)c2c1 [Example 286, 1-[1-(4-fluorophenethyl)piperidin-4-yl]-6-(N-isopropylcarbamoylmethyl)indole]
2 | 156.4 to 156.8 °C | 3.64 nM | 0.85 nM | 195 nM | O=C(Cc1ccc2ccn(C3CCN(CCc4ccc(F)cc4)CC3)c2c1)NC1CC1 [Example 295, 1-[1-(4-fluorophenethyl)piperidin-4-yl]-6-[N-(cyclopropylcarbamoyl)methyl]indole]
3 | 131.8 to 132.2 °C | 2.73 nM | 0.32 nM | 238 nM | CC(C)CNC(=O)Cc1ccc2ccn(C3CCN(CCc4ccc(F)cc4)CC3)c2c1 [Example 296, 1-[1-(4-fluorophenethyl)piperidin 4-yl]-6-[N-(isobutylcarbamoyl)methyl]indole]
4 | 131.1 to 131.9 °C | 4.17 nM | 0.98 nM | 226 nM | CCCNC(=O)Cc1ccc2ccn(C3CCN(CCc4ccc(F)cc4)CC3)c2c1 [Example 297, 1-[1-(4-fluorophenethyl)piperidin-4-yl]-6-(n-propylcarbamoylmethyl)indole]
5 | 156.9 to 157.8 °C | 2.54 nM | 0.11 nM |  | NC(=O)Cc1ccc2ccn(C3CCN(CCc4ccc(F)cc4F)CC3)c2c1 [Example 299, 1-[1-(2,4-difluorophenethyl)piperidin-4-yl]-6-carbamoylmethylindole]
6 | 190.5 to 192.2 °C (dec.) | 60.5 nM | 2.92 nM | 143 nM | O=C(Cc1ccc2ccn(C3CCN(CCc4ccc(F)cc4)CC3)c2c1)N1CCC(O)CC1 [Example 302, 1-[1-(4-fluorophenethyl)piperidin-4-yl]-6-(4-hydroxypiperidin-1-ylcarbonylmethyl)indole]
7 | 111.8 to 112.9 °C | 0.83 nM | 7.02 nM | 51.5 nM | CN(C)CCNC(=O)Cc1ccc2ccn(C3CCN(CCc4ccc(F)cc4)CC3)c2c1 [Example 307, 1-[1-(4-fluorophenethyl)piperidin-4-yl]-6-(2-dimethylaminoethyl)carbamoylmethylindole]
8 | 113.2 to 114.4 °C | 1.02 nM | 3.85 nM | 123 nM | COCCNC(=O)Cc1ccc2ccn(C3CCN(CCc4ccc(F)cc4)CC3)c2c1 [Example 309, 1-[1-(4-fluorophenethyl)piperidin-4-yl]-6-(2-methoxyethyl)carbamoylmethylindole]
9 | 163.3 to 163.8 °C | 2.29 nM | 1.34 nM | 84.4 nM | O=C(Cc1ccc2ccn(C3CCN(CCc4ccc(F)cc4)CC3)c2c1)NCCF [Example 310, 1-[1-(4-fluorophenethyl)piperidin-4-yl]-6-(2-fluoroethyl)carbamoylmethylindole]
10 | 131 to 133 °C | > 20 nM | 0.14 nM | 203 nM | OCCCc1ccc2ccn(C3CCN(CCc4ccc(F)cc4)CC3)c2c1 [Example 321, 1-[1-(4-fluorophenethyl)piperidin-4-yl]-6-(3-hydroxypropyl)indole]
11 | 121 to 122 °C | 30.4 nM | 0.08 nM | 41.3 nM | CS(=O)(=O)NCc1ccc2ccn(C3CCN(CCc4ccc(F)cc4)CC3)c2c1 [Example 322, 1-[1-(4-fluorophenethyl)piperidin-4-yl]-6-methanesulfonamidomethylindole]
12 | 90 to 92 °C | > 20 nM | 0.14 nM | 86.9 nM | CC(C)S(=O)(=O)NCc1ccc2ccn(C3CCN(CCc4ccc(F)cc4)CC3)c2c1 [Example 323, 1-[1-(4-fluorophenethyl)piperidin-4-yl]-6-isopropylsulfonamidomethylindole]
13 | 80 to 81 °C | > 20 nM | 0.1 nM | 60.9 nM | CCCS(=O)(=O)NCc1ccc2ccn(C3CCN(CCc4ccc(F)cc4)CC3)c2c1 [Example 324, 1-[1-(4-fluorophenethyl)piperidin-4-yl]-6-n-propylsulfonamidomethylindole]
14 | 143 to 145 °C | 10.9 nM | 0.65 nM | 47 nM | O=S(=O)(CCCCl)NCc1ccc2ccn(C3CCN(CCc4ccc(F)cc4)CC3)c2c1 [Example 325, 1-[1-(4-fluorophenethyl)piperidin-4-yl]-6-(3-chloropropyl)sulfonamidomethylindole]
15 | 141 to 142 °C | 2.64 nM | 1.04 nM | 99 nM | CCC(=O)NCc1ccc2ccn(C3CCN(CCc4ccc(F)cc4)CC3)c2c1 [Example 327, 1-[1-(4-fluorophenethyl)piperidin-4-yl]-6-propionylaminomethylindole]
16 | 101 to 102 °C | > 20 nM | 2.06 nM | 140 nM | CC(=O)NCc1ccc2c(Cl)cn(C3CCN(CCc4ccc(F)cc4)CC3)c2c1 [Example 328, 3-chloro-1-[1-(4-fluorophenethyl)piperidin-4-yl]-6-acetamidomethylindole]
17 | 118 to 119 °C | > 20 nM | 0.11 nM | 339 nM | OCCOc1ccc2ccn(C3CCN(CCc4ccc(F)cc4)CC3)c2c1 [Example 330, 1-[1-(4-fluorophenethyl)piperidin-4-yl]-6-hydroxyethoxyindole]
18 | 133 to 135 °C | 8.28 nM | 0.11 nM | 77 nM | CS(=O)(=O)c1ccc2ccn(C3CCN(CCc4ccc(F)cc4)CC3)c2c1 [Example 331, 1-[1-(4-fluorophenethyl)piperidin-4-yl]-6-methanesulfonylindole]
19 | 238 to 240 °C | > 20 nM | < 0.2 nM |  | NC(=O)c1ccc2ccn(C3CCN(CCc4ccc(F)cc4)CC3)c2c1 [Example 337, 1-[1-(4-fluorophenethyl)piperidin-4-yl]-6-carbamoylindole]
20 | 59 to 60 °C | > 20 nM | 1.52 nM |  | CC(=O)NCc1ccc2ccn(C3CCN(CCCCc4ccc(F)cc4)CC3)c2c1 [Example 356, 1-{1-[4-(4-fluorophenyl)butyl]-piperidin-4-yl}-6-acetamidomethylindole]
21 | 143 to 144 °C | 1.77 nM | 0.24 nM |  | O=C(CCl)NCc1ccc2ccn(C3CCN(CCc4ccc(F)cc4)CC3)c2c1 [Example 373, 1-[1-(4-fluorophenethyl)piperidin-4-yl]-6-chloroacetamidomethylindole]
22 | 117 to 118 °C | 0.25 nM | 0.13 nM |  | COC(=O)NCc1ccc2ccn(C3CCN(CCc4ccc(F)cc4)CC3)c2c1 [Example 384, 1-[1-(4-fluorophenethyl)piperidin-4-yl]-6-methoxycarbonylaminomethylindole]
23 | 140 to 141 °C | 15.5 nM | 0.53 nM |  | CC(=O)NCc1ccc2ccn(C3CCN(CCc4ccc(Br)cc4)CC3)c2c1 [Example 389, 1-[1-(4-bromophenethyl)piperidin-4-yl]-6-acetamidomethylindole]

Row | SMILES | melting point | Ki (serotonin 2 receptor) | Ki (serotonin 1A receptor) | Ki (α1 adrenalin receptor)
24 | CCNC(=O)Cc1ccc2ccn(C3CCN(CCc4ccc(F)cc4)CC3)c2c1 [Example 294, 1-[1-(4-fluorophenethyl)piperidin-4-yl]-6-(ethylcarbamoylmethyl)indole] | 159.6 to 160.1 °C | 2.86 nM | 1.05 nM | 80.7 nM
25 | O=C(Cc1ccc2ccn(C3CCN(CCc4ccc(F)cc4)CC3)c2c1)NCCO [Example 300, 1-[1-(4-fluorophenethyl)piperidin-4-yl]-6-(2-hydroxyethyl)carbamoylmethylindole] | 140 to 141.2 °C | 3.55 nM | 1.73 nM | 225 nM
26 | CN(C)C(=O)Cc1ccc2ccn(C3CCN(CCc4ccc(F)cc4)CC3)c2c1.O=C(O)C(=O)O [Example 301, 1-[1-(4-fluorophenethyl)piperidin-4-yl]-6-dimethylcarbamoylmethylindole Oxalate] | 170.1 to 170.6 °C | 21.9 nM | 0.8 nM | 66.9 nM
27 | O=C(Cc1ccc2ccn(C3CCN(CCc4ccc(F)cc4)CC3)c2c1)NC(CO)CO.O=C(O)C(=O)O [Example 304, 1-[1-(4-fluorophenethyl)piperidin-4-yl]-6-(1,3-dihydroxypropan-2-yl)carbamoylmethylindole Oxalate] | 213.1 to 214.5 °C (dec.) | 6.26 nM | 8.37 nM | 141 nM
28 | NC(=O)Cc1ccc2ccn(C3CCN(CCc4ccc(F)cc4)CC3)c2c1 [Example 305, 1-[1-(4-fluorophenethyl)piperidin-4-yl]-6-carbamoylmethylindole] | 159.1 to 160.8 °C | 3.29 nM | 0.06 nM | 35.9 nM
29 | CNC(=O)Cc1ccc2ccn(C3CCN(CCc4ccc(F)cc4)CC3)c2c1 [Example 316, 1-[1-(4-fluorophenethyl)piperidin-4-yl]-6-methylcarbamoylmethylindole] | 149.4 to 150.5 °C | 1.26 nM | 1.82 nM | 63.7 nM
